Tests used:
Assay in all cases: combination Emax (second highest fraction inhibited in the dose matrix, 72 h); higher = more inhibition; extreme values may be limits of the assay
[1] = test system: CESS (Acute Myeloid Leukemia)
Method in brief: (§1)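 After 24 hours at 37°C and 5% CO2 in 1536-well plates, cells in DMEM/F12 or RPMI plus 10% FBS received two-drug dose matrices for 72 hours. Viability came from CellTiter-Glo 2.0 luminescence and was scaled as inhibition, anchored at 0 by vehicle wells and at 1 by blank wells. Combination Emax is taken as the second-highest inhibition in the matrix, and Bliss excess as the observed combination effect less EA + EB − EA·EB, with EA and EB the single-agent effects.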

[2] = test system: MDA-MB-436 (Breast Carcinoma)
Method in brief: as §1

[3] = test system: JHU-022 (Oral Cavity Carcinoma)
Method in brief: as §1

[4] = test system: HCC1395 (Breast Carcinoma)
Method in brief: as §1

[5] = test system: EW-7 (Ewing's Sarcoma)
Method in brief: as §1

[6] = test system: AU565 (Breast Carcinoma)
Method in brief: as §1

[7] = test system: JIMT-1 (Breast Carcinoma)
Method in brief: as §1

[8] = test system: JHH-2 (Hepatocellular Carcinoma)
Method in brief: as §1

[9] = test system: UACC-812 (Breast Carcinoma)
Method in brief: as §1

[10] = test system: GCT (Other Solid Carcinomas)
Method in brief: as §1

[11] = test system: ESO26 (Esophageal Adenocarcinoma)
Method in brief: as §1

[12] = test system: LS-411N (Colorectal Carcinoma)
Method in brief: as §1

[13] = test system: DMS-53 (Small Cell Lung Carcinoma)
Method in brief: as §1

[14] = test system: NCI-H2087 (Lung Adenocarcinoma)
Method in brief: as §1

[15] = test system: KYSE-220 (Esophageal Squamous Cell Carcinoma)
Method in brief: as §1

[16] = test system: NCI-H2228 (Lung Adenocarcinoma)
Method in brief: as §1

[17] = test system: GA-10 (Burkitt's Lymphoma)
Method in brief: as §1

[18] = test system: NCI-H716 (Colorectal Carcinoma)
Method in brief: as §1

[19] = test system: KP-N-YN (Neuroblastoma)
Method in brief: as §1

[20] = test system: NCI-H1703 (Squamous Cell Lung Carcinoma)
Method in brief: as §1

| SMILES | combination Emax [1] | combination Emax [2] | combination Emax [3] | combination Emax [4] | combination Emax [5] | combination Emax [6] | combination Emax [7] | combination Emax [8] | combination Emax [9] | combination Emax [10] | combination Emax [11] | combination Emax [12] | combination Emax [13] | combination Emax [14] | combination Emax [15] | combination Emax [16] | combination Emax [17] | combination Emax [18] | combination Emax [19] | combination Emax [20] |
| --- | --- | --- | --- | --- | --- | --- | --- | --- | --- | --- | --- | --- | --- | --- | --- | --- | --- | --- | --- | --- |
| Cn1cnc2c(F)c(Nc3ccc(Br)cc3Cl)c(C(=O)NOCCO)cc21 [Selumetinib] + CC(C)n1c(=O)n(C)c2cnc3cc(F)c(-c4ccc(OCCCN5CCCCC5)nc4)cc3c21 [AZD1390] (first compound max 10 µM, 7x7, partner max 0.3 µM) | 0.243 | 0.259 | 0.497 | 0.192 | 0.15 | 0.146 | 0.131 | 0.315 | 0.129 | 0.287 | 0.115 | 0.666 | 0.132 | 0.449 | 0.405 | 0.203 | 0.165 | 0.452 | 0.398 | 0.122 |
| Cc1c2c(nn1C)CSCc1cc(n(C)n1)CSc1cc(c3ccccc3c1)OCCCc1c(C(=O)O)n(C)c3c-2c(Cl)ccc13 [AZD5991] + CC1(C)CCC(CN2CCN(c3ccc(C(=O)NS(=O)(=O)c4ccc(NCC5CCOCC5)c([N+](=O)[O-])c4)c(Oc4cnc5[nH]ccc5c4)c3)CC2)=C(c2ccc(Cl)cc2)C1 [Venetoclax] (first compound max 1 µM, 7x7, partner max 1 µM) | 0.525 | 0.0835 | 0.116 | 0.736 | 0.487 | 1 | 0.215 | 0.218 | 0.694 | 0.288 | 0.151 | 0.157 | 0.828 | 0.153 | 0.181 | 0.184 | 0.64 | 0.176 | 0.817 |  |
| CS(=O)(=O)CCNCc1ccc(-c2ccc3ncnc(Nc4ccc(OCc5cccc(F)c5)c(Cl)c4)c3c2)o1 [Lapatinib] + C[C@@H](Oc1cc(-c2cnn(C3CCNCC3)c2)cnc1N)c1c(Cl)ccc(F)c1Cl [Crizotinib] (first compound max 10 µM, 7x7, partner max 10 µM) | 0.896 | 0.248 | 0.943 | 0.906 | 0.956 | 0.959 | 0.851 | 0.882 |  | 0.903 | 0.854 | 0.584 | 0.25 | 0.395 | 0.994 | 0.769 | 0.98 | 0.837 | 0.755 | 0.746 |
| NC1(C(=O)N[C@@H](CCO)c2ccc(Cl)cc2)CCN(c2ncnc3[nH]ccc23)CC1 [Capivasertib] + CC(C)n1c(=O)n(C)c2cnc3cc(F)c(-c4ccc(OCCCN5CCCCC5)nc4)cc3c21 [AZD1390] (first compound max 10 µM, 7x7, partner max 0.3 µM) | 0.456 | 0.267 | 0.413 | 0.383 | 0.587 | 0.535 | 0.202 | 0.539 |  | 0.6 | 0.449 | 0.434 | 0.187 | 0.206 | 0.49 | 0.46 | 0.74 | 0.45 | 0.359 | 0.548 |
| NC1(C(=O)N[C@@H](CCO)c2ccc(Cl)cc2)CCN(c2ncnc3[nH]ccc23)CC1 [Capivasertib] + CCN(CCO)CCCOc1ccc2c(Nc3cc(CC(=O)Nc4cccc(F)c4)[nH]n3)ncnc2c1 [AZD2811] (first compound max 10 µM, 7x7, partner max 1 µM) | 0.654 | 0.264 | 0.446 | 0.455 | 0.885 | 0.819 | 0.284 | 0.587 |  | 0.636 | 0.52 | 0.557 | 0.238 | 0.256 | 0.623 | 0.533 | 0.918 | 0.457 | 0.608 | 0.678 |
| CC(=O)c1c(C)c2cnc(Nc3ccc(N4CCNCC4)cn3)nc2n(C2CCCC2)c1=O [Palbociclib] + Cc1c2c(nn1C)CSCc1cc(n(C)n1)CSc1cc(c3ccccc3c1)OCCCc1c(C(=O)O)n(C)c3c-2c(Cl)ccc13 [AZD5991] (first compound max 10 µM, 7x7, partner max 1 µM) | 0.669 | 0.229 | 0.167 | 0.419 | 0.494 | 0.998 | 0.179 | 0.368 |  | 0.395 | 0.63 | 0.347 | 0.263 | 0.218 | 0.305 | 0.247 | 0.975 | 0.356 | 0.387 | 0.815 |
| Cc1c2c(nn1C)CSCc1cc(n(C)n1)CSc1cc(c3ccccc3c1)OCCCc1c(C(=O)O)n(C)c3c-2c(Cl)ccc13 [AZD5991] + CN(C)CCCOc1ccc(-c2ccc3ncc4c(c3c2)n(C2CCOCC2)c(=O)n4C)cn1 [AZD0156] (first compound max 1 µM, 7x7, partner max 1 µM) | 0.233 | 0.167 | 0.172 | 0.537 | 0.376 | 1 | 0.225 |  | 0.491 | 0.502 | 0.269 | 0.136 | 0.716 | 0.201 | 0.278 | 0.307 | 0.776 | 0.294 | 0.252 | 0.892 |
